In ChEMBL document CHEMBL2424533, “Design and regioselective synthesis of trifluoromethylquinolone derivatives as potent antimicrobial agents” (2013):
Values after ≈ are worked out from the molar mass of the structure shown. Active and inactive are the calls of the source. The rule behind the calls is not given here.

How the values were obtained:
Candida albicans [1] = test: Antimicrobial activity against Candida albicans MTCC 183 at 100 ug/mL after 12 hrs by well diffusion method; assay type: functional
Staphylococcus aureus [2] = conditions: MTCC 3160, 50 ug/mL
Description: Antimicrobial activity against Staphylococcus aureus MTCC 3160 at 50 ug/mL after 12 hrs by well diffusion method

Candida albicans [3] = test: Antimicrobial activity against Candida albicans MTCC 183 at 50 ug/mL after 12 hrs by well diffusion method; assay type: functional
Penicillium chrysogenum = test: Antimicrobial activity against Penicillium chrysogenum MTCC 6795 at 50 to 100 ug/mL after 48 hrs by well diffusion method; assay type: functional, organism-based
Pseudomonas aeruginosa [4] = test: Antimicrobial activity against Pseudomonas aeruginosa MTCC 4673 after 12 hrs by well diffusion method; assay type: functional; conditions: MTCC 4673, 12 h
Staphylococcus aureus [5] = test: Antimicrobial activity against Staphylococcus aureus MTCC 3160 after 12 hrs by well diffusion method; assay type: functional; conditions: MTCC 3160, 12 h
[6] = test system: Mycolicibacterium smegmatis; test: Antimicrobial activity against Mycobacterium smegmatis MTCC 943 after 12 hrs by well diffusion method; assay type: functional; conditions: MTCC 943, 12 h
Pseudomonas aeruginosa [7] = test: Antimicrobial activity against Pseudomonas aeruginosa MTCC 4673 at 50 ug/mL after 12 hrs by well diffusion method; assay type: functional; conditions: MTCC 4673, 12 h, read-out: DIZ
[8] = test system: Mycolicibacterium smegmatis; test: Antimicrobial activity against Mycobacterium smegmatis MTCC 943 at 50 ug/mL after 12 hrs by well diffusion method; assay type: functional; conditions: for zone of inhibition at 50 µg/mL: MTCC 943, 12 h, read-out: DIZ
Salmonella typhimurium [9] = test: Antimicrobial activity against Salmonella typhimurium MTCC 3732 at 100 ug/mL after 12 hrs by well diffusion method; assay type: functional, Salmonella enterica subsp. enterica serovar Typhimurium; conditions: for zone of inhibition at 100 µg/mL: Salmonella enterica, MTCC 3732, 12 h, read-out: DIZ; for diameter of the inhibition zone (DIZ): Salmonella enterica subsp. enterica serovar Typhimurium
Staphylococcus aureus [10] = test: Antimicrobial activity against Staphylococcus aureus MTCC 3160 at 100 ug/mL after 12 hrs by well diffusion method; assay type: functional; conditions: for zone of inhibition at 100 µg/mL: MTCC 3160, 12 h, read-out: DIZ
Salmonella typhimurium [11] = test: Antimicrobial activity against Salmonella typhimurium MTCC 3732 at 50 ug/mL after 12 hrs by well diffusion method; assay type: functional, Salmonella enterica subsp. enterica serovar Typhimurium; conditions: for zone of inhibition at 50 µg/mL: Salmonella enterica, MTCC 3732, 12 h, read-out: DIZ; for diameter of the inhibition zone (DIZ): Salmonella enterica subsp. enterica serovar Typhimurium
Pseudomonas aeruginosa [12] = test: Antimicrobial activity against Pseudomonas aeruginosa MTCC 4673 at 100 ug/mL after 12 hrs by well diffusion method; assay type: functional; conditions: MTCC 4673, 12 h, read-out: DIZ
Candida albicans [13] = test: Antimicrobial activity against Candida albicans MTCC 183 after 12 hrs by well diffusion method; assay type: functional; conditions: MTCC 183, 12 h
Salmonella typhimurium [14] = test: Antimicrobial activity against Salmonella typhimurium MTCC 3732 after 12 hrs by well diffusion method; assay type: functional, Salmonella enterica subsp. enterica serovar Typhimurium; conditions: Salmonella enterica, MTCC 3732, 12 h
[15] = test system: Mycolicibacterium smegmatis; test: Antimicrobial activity against Mycobacterium smegmatis MTCC 943 at 100 ug/mL after 12 hrs by well diffusion method; assay type: functional; conditions: for zone of inhibition at 100 µg/mL: MTCC 943, 12 h, read-out: DIZ

Row | SMILES | diameter of the inhibition zone (DIZ) (Candida albicans [1]) | DIZ (Staphylococcus aureus [2]) | diameter of the inhibition zone (DIZ) (Candida albicans [3]) | Activity (Penicillium chrysogenum) | MIC (Pseudomonas aeruginosa [4]) [µg/mL] | MIC (Staphylococcus aureus [5]) [µg/mL] | MIC [6] [µg/mL] | zone of inhibition at 50 µg/mL (Pseudomonas aeruginosa [7]) [mm] | zone of inhibition at 50 µg/mL [8] [mm] | zone of inhibition at 100 µg/mL (Salmonella typhimurium [9]) [mm] | diameter of the inhibition zone (DIZ) (Staphylococcus aureus [10]) | zone of inhibition at 50 µg/mL (Salmonella typhimurium [11]) [mm] | zone of inhibition at 100 µg/mL (Pseudomonas aeruginosa [12]) [mm] | MIC (Candida albicans [13]) [µg/mL] | MIC (Salmonella typhimurium [14]) [µg/mL] | zone of inhibition at 100 µg/mL [15] [mm] | diameter of the inhibition zone (DIZ) (Salmonella typhimurium [9]) | diameter of the inhibition zone (DIZ) (Salmonella typhimurium [11]) | zone of inhibition at 100 µg/mL (Staphylococcus aureus [10]) [mm] | diameter of the inhibition zone (DIZ) [15] | other results
1 | C#CCn1cc(C(=O)NN)c(=O)c2ccc(C(F)(F)F)cc21 | inactive | inactive | inactive | inactive | 25 (≈ 80.8 µM) | 100 (≈ 323 µM) | 25 (≈ 80.8 µM) | 8 | 8 | 8 | inactive | 7.6 | 8 | > 100 | 25 (≈ 80.8 µM) | 8 | – | – | – | – | –
2 | N#Cc1ccc(Cn2cc(C(=O)NN)c(=O)c3ccc(C(F)(F)F)cc32)cc1 | inactive | inactive | inactive | inactive | 25 (≈ 64.7 µM) | > 100 | 25 (≈ 64.7 µM) | 8 | 8 | – | inactive | – | 8 | > 100 | > 100 | 8 | inactive | inactive | – | – | –
3 | N#Cc1ccc(Cn2cc(C(=O)NN)c(=O)c3cccc(C(F)(F)F)c32)cc1 | inactive | inactive | inactive | inactive | 25 (≈ 64.7 µM) | 100 (≈ 259 µM) | 50 (≈ 129 µM) | 8 | 7.3 | – | – | – | 8 | > 100 | > 100 | 8 | inactive | inactive | 8 | – | –
4 | CCOC(=O)c1cn(Cc2ccc(C#N)cc2)c2cc(C(F)(F)F)ccc2c1=O | inactive | inactive | inactive | inactive | 25 (≈ 62.4 µM) | > 100 | 50 (≈ 125 µM) | 8 | 7 | 8 | inactive | 7.3 | 8 | > 100 | 50 (≈ 125 µM) | – | – | – | – | inactive | –
5 | N#Cc1ccc(Cn2cc(C(=O)O)c(=O)c3cccc(C(F)(F)F)c32)cc1 | – | inactive | inactive | – | 25 (≈ 67.1 µM) | 100 (≈ 269 µM) | > 100 | 8 | – | – | – | – | 8 | 100 (≈ 269 µM) | > 100 | – | inactive | inactive | 8 | inactive | zone of inhibition at 100 µg/mL (Candida albicans [1]; MTCC 183, 12 h, read-out: DIZ): 8 mm; diameter of the inhibition zone (DIZ) [8]: inactive
6 | CCOC(=O)c1cn(Cc2ccc(Cl)cc2Cl)c2c(C(F)(F)F)cccc2c1=O | inactive | inactive | inactive | inactive | 50 (≈ 113 µM) | 100 (≈ 225 µM) | 50 (≈ 113 µM) | 7 | 7 | – | – | – | 7 | > 100 | > 100 | 8 | inactive | inactive | 9 | – | –
